We go through 30 compounds from paper PMC6696021, “Combined Ensemble Docking and Machine Learning in Identification of Therapeutic Agents with Potential Inhibitory Effect on Human CES1” (Molecules, 2019).

In general, IC50 refers to the concentration that inhibits the measured activity by half.

SMILES strings stand for the structures.

The first data set has as its target T1, Recombinant human CES1 (Homo sapiens, UniProt P23141).
T1 construct: purchased BD Gentest (Woburn, MA, US)
T1 sequence (P23141 18-567): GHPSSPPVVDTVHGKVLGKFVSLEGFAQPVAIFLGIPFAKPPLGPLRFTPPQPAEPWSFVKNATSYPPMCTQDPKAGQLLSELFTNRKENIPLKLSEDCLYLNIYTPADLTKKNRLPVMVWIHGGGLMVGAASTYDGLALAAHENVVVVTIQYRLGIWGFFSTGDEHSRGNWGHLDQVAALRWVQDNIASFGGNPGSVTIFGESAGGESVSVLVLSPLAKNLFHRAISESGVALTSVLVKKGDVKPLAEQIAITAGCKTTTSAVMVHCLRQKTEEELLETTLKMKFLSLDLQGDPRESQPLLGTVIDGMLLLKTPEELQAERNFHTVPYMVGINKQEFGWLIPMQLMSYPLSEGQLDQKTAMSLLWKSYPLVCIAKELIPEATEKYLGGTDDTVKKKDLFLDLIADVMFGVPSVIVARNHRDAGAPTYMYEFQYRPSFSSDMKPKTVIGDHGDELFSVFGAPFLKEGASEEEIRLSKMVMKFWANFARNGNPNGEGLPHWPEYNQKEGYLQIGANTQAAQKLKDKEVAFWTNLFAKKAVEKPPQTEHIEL
Put plainly: In vitro assessment of CES1 inhibition (p-nitrophenyl acetate hydrolysis). It is filed as biochemical.
Conditions: not given
For `C=CCN1CC[C@]23c4c5ccc(O)c4O[C@H]2C(=O)CC[C@@]3(O)[C@H]1C5` [Naloxone], the IC50 was determined as 618000 nM.

The same data set, now with this note: highest concentration tested.
With `C[C@H]1CN(C[C@H](Cc2ccccc2)C(=O)NCC(=O)O)CC[C@@]1(C)c1cccc(O)c1` [Alvimopan], the “inhibition at the highest concentration” value is on record as “no inhibition”.

The data set is the same for the next values; noted with them: max concentration 600 µM; read-out: inhibition at max concentration.
As to `C[N+]1(C)CCCC(OC(=O)C(O)(c2ccccc2)c2ccccc2)C1` (stereo not drawn) [Mepenzolate], the inhibition at 600 µM is about 15%.

Staying with this data set, now noted: read-out: inhibition at max concentration.
`O=C(O[C@H]1C[C@H]2CC[C@@H](C1)[N+]21CCCC1)C(O)(c1ccccc1)c1ccccc1` [Trospium]: the inhibition at 600 µM was found to be 30%.

The same data set, now with this note: substrate p-nitrophenyl acetate 100 µM, 37 °C, 3 min; NS means Non-significant.
Consider `C[N+]1(C)CCCC(OC(=O)C(O)(c2ccccc2)c2ccccc2)C1` (stereo not drawn) [Mepenzolate], for which the IC50 was over 600000 nM.

As for `O=C(O[C@H]1C[C@H]2CC[C@@H](C1)[N+]21CCCC1)C(O)(c1ccccc1)c1ccccc1` [Trospium], the IC50 was over 600000 nM.

The same data set, now with this note: substrate p-nitrophenyl acetate 100 µM, 37 °C, 3 min; NS means Non-significant; read-out: IC50.
As to `CCCCC[C@H](O)CC[C@@H]1[C@H]2Cc3cccc(OCC(=O)O)c3C[C@H]2C[C@H]1O` [Treprostinil], the IC50 was found to be 392000 nM. `COc1ccc([C@@H]2Sc3ccccc3N(CCN(C)C)C(=O)[C@@H]2OC(C)=O)cc1` [Diltiazem]: the IC50 stood at 13900 nM.

For the compound `CN1[C@@H]2CC[C@H]1C[C@@H](OC(c1ccccc1)c1ccccc1)C2` [Benztropine], the IC50 amounted to 298000 nM.

For the compound `C[C@H]1CN(C[C@H](Cc2ccccc2)C(=O)NCC(=O)O)CC[C@@]1(C)c1cccc(O)c1` [Alvimopan], the concentration for half-maximal inhibition (IC50) was over 600000 nM. For `CC#CCC(C)[C@H](O)/C=C/[C@@H]1[C@H]2C/C(=C/CCCC(=O)O)C[C@H]2C[C@H]1O` (stereo partly drawn) [Iloprost], the IC50 turned out to be 367000 nM.

System in the next data set: not listed separately
Put plainly: Solubility in aqueous assay buffer. It is filed as physicochemical. The conditions noted are these: pH 7.
Consider `Oc1ccc2c3c1O[C@H]1[C@@H](O)CC[C@@]4(O)[C@@H](C2)N(CC2CCC2)CC[C@]314` [Nalbuphine], for which the “solubility in aqueous buffer” value is “lacked the required solubility”.

The target of a further data set is CES1.
Test: not given
Also noted: method as in earlier work. Conditions: Table S1, bioactivity from ChEMBL database; read-out: Ki_Nanomolar; cited from earlier work.
For the compound `O=C(C(=O)c1ccc([N+](=O)[O-])cc1)c1ccccc1` [CHEMBL192589], the Ki was 214 nM.

In the case of `O=C1C(=O)N2CCCc3cccc1c32` [CHEMBL395654], the Ki is 1540 nM. `O=C(C(=O)C1CCCCC1)C1CCCCC1` [CHEMBL235287]: the Ki was 38.5 nM. `O=S(=O)(Nc1ccc(NS(=O)(=O)c2ccc(Cl)cc2)cc1)c1ccc(Cl)cc1` [CHEMBL254426]: the Ki is 13700 nM. For the compound `COc1cc(NCN2C(=O)C(=O)c3ccccc32)cc(OC)c1OC` [CHEMBL221362], the Ki was 19500 nM. For `O=C(CC(=O)c1ccccc1)c1ccccc1` [DIBENZOYLMETHANE], the Ki is 26000 nM.

On to `Cc1ccc(C(=O)Nc2cccc(C(=O)C(=O)c3ccccn3)c2)cc1` [CHEMBL1630810], for which the Ki is 1030 nM.

Consider `O=C(C(=O)c1ccc(Cl)cc1)c1ccccc1` [CHEMBL192180], for which the Ki was 37 nM. As for `O=C(C(=O)c1ccc(CBr)cc1)c1ccccc1` [CHEMBL192241], the Ki was 77.6 nM.

With `O=C1C=Cc2ccccc2C1=O` [1-2-NAPHTHOQUINONE], the Ki was 930 nM.

As to `C=C(C)CN1C(=O)C(=O)c2cc(Br)ccc21` [CHEMBL225169], the Ki is 66 nM.

`Cc1ccc(C(=O)C(=O)c2ccccc2)cc1[N+](=O)[O-]` [CHEMBL191847]: the Ki is 223 nM. As to `CCC(=O)C(=O)c1ccccc1` [CHEMBL1812860], the Ki is 1550 nM. Consider `CCCCCCCCCCCC[S+]([O-])CC(O)(O)C(F)(F)F` (stereo not drawn) [CHEMBL463556], for which the Ki is 953 nM. `O=C(C(=O)c1ccccc1Cl)c1ccccc1Cl` [CHEMBL365392]: the Ki is 1650 nM. With `O=C(C(=O)c1cccc([N+](=O)[O-])c1)c1cccc([N+](=O)[O-])c1` [CHEMBL191796], the Ki is 18100 nM.

For `CCCCCC(=O)C(=O)CCCCC` [CHEMBL1812856], the Ki was 3 nM.

Take `O=C(C(=O)c1ccsc1)c1ccsc1` [CHEMBL372716]: the Ki is 1050 nM. In the case of `O=C1C(=O)c2ccccc2-c2ccccc21` [9-10-PHENANTHRENEQUINONE], the Ki is 2.5 nM. On to `O=C1Nc2c(ccc(Cl)c2Cl)C1=O` [CHEMBL222292], for which the Ki was 9400 nM.

For `CCCCCCS(=O)(=O)CC(O)(O)C(F)(F)F` [CHEMBL449775], the Ki was 4890 nM.
